Test results: patent publication US11780830B2, “Triazolone derivatives or salts thereof and pharmaceutical compositions comprising the same” (YUHAN CORPORATION, priority 2018, dated 2023)

Experiments:
Type in all cases: biochemical
recombinant human VAP-1 = molecular target: T1, recombinant human VAP-1 (Homo sapiens, UniProt Q16853); assay: Activity on recombinant human VAP-1, HRP-coupled Amplex Red hydrogen peroxide assay; settings: substrate 1 mM benzylamine; compound incubated with enzyme at 37° C. for 30 minutes; pH 7.4; read-out: Inhibitory Activity (IC50, nM) human VAP-1
T1 construct: purchased R&D systems
T1 sequence (Q16853 1-763): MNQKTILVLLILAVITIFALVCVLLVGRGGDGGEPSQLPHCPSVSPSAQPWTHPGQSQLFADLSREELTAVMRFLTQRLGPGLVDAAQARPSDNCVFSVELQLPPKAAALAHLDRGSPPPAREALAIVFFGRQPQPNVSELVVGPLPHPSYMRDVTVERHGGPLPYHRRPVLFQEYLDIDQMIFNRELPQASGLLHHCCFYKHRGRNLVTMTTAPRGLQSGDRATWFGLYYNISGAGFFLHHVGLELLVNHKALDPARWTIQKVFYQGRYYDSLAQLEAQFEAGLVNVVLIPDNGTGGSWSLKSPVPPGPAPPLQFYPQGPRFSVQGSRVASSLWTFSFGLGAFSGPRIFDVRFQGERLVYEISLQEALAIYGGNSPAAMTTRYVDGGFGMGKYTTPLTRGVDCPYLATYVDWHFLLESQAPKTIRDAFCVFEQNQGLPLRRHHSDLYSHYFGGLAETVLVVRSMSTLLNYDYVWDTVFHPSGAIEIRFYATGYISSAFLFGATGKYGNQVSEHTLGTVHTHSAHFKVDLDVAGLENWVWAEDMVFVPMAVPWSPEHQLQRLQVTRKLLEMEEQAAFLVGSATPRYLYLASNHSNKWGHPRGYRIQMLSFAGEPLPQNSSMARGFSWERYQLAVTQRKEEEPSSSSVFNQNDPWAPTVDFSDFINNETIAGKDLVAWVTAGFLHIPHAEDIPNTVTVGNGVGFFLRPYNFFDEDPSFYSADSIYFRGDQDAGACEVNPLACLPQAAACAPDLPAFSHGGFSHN
Method in brief: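 Dose-response IC50 determined from reduction in resorufin signal rate (544/590 nm, 1-2 h), with 30 min compound preincubation at 37 °C and 1 mM benzylamine as substrate.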

[1] = molecular target: T2, recombinant human MAO-A (monoamine oxidase-A) (Homo sapiens, UniProt P21397); assay: Activity on recombinant human MAO-A, method similar to the VAP-1 assay; settings: substrate 0.5 mM tyramine; read-out: Inhibitory Activity (IC50, nM) MAO-A
T2 construct: purchased Sigma-Aldrich
T2 sequence (P21397 1-527): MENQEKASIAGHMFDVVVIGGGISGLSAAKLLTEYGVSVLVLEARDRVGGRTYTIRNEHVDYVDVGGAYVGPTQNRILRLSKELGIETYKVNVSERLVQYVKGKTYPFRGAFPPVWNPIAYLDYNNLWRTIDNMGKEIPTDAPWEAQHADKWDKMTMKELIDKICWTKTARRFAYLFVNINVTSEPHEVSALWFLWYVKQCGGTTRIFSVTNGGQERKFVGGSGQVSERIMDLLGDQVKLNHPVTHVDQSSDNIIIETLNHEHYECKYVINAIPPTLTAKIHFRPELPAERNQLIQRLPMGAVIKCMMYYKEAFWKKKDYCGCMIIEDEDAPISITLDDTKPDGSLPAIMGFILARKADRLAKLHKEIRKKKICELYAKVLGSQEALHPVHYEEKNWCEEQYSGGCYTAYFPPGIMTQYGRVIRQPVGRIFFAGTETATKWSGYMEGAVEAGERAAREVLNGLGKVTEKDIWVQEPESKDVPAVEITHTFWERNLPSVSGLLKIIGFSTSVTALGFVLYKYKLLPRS
Method in brief: (§1)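 Amplex Red/HRP coupled read-out of H2O2 with 0.5 mM tyramine for MAO-A or 1 mM benzylamine for MAO-B, following a 30-min compound–enzyme preincubation at 37° C. IC50 from percent inhibition of signal rate relative to uninhibited control.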

[2] = molecular target: T3, recombinant human MAO-B (monoamine oxidase-B) (Homo sapiens, UniProt P27338); assay: Activity on recombinant human MAO-B, method similar to the VAP-1 assay; settings: substrate 1 mM benzylamine; read-out: Inhibitory Activity (IC50, nM) MAO-B
T3 construct: purchased Sigma-Aldrich
T3 sequence (P27338 1-520): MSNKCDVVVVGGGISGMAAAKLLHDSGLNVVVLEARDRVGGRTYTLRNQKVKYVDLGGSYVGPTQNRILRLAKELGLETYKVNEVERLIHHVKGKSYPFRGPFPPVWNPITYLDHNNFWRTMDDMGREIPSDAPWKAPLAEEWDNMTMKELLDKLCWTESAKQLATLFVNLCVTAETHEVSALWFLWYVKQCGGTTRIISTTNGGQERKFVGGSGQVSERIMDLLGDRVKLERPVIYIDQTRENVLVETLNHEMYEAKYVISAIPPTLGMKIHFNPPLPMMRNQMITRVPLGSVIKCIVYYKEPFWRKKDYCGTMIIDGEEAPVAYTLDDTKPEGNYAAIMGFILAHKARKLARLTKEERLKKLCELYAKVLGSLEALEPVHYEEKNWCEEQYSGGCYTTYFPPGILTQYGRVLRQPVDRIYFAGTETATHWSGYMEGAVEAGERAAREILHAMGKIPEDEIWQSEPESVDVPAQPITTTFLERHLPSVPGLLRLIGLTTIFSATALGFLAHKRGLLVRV
Method in brief: as §1

[3] = molecular target: T4, recombinant human DAO (diamine oxidase) (Homo sapiens, UniProt P19801); assay: Activity on recombinant human DAO, method similar to the VAP-1 assay; settings: substrate 1 mM putrescine; read-out: Inhibitory Activity (IC50, nM) DAO
T4 construct: purchased R&D systems
T4 sequence (P19801 20-751): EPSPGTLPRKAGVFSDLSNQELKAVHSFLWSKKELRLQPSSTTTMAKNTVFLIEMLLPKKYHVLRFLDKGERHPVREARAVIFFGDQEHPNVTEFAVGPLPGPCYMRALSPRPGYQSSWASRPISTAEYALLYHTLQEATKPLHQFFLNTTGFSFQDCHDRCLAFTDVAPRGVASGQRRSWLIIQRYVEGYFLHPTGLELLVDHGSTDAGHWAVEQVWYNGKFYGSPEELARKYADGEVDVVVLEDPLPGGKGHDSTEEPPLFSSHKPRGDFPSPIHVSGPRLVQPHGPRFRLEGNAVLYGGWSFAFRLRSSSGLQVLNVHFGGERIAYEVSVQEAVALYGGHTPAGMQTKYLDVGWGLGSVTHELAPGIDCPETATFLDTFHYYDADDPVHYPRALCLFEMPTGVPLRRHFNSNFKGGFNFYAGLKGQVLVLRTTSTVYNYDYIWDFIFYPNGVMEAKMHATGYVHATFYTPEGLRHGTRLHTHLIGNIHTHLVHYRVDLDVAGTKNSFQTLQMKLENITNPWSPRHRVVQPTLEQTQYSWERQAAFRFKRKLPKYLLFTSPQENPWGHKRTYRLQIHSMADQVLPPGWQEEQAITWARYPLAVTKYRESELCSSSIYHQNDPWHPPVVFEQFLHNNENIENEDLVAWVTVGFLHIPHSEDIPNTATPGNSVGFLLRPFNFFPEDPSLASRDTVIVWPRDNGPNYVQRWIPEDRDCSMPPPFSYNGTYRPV
Method in brief: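 Inhibition of recombinant human diamine oxidase (DAO, R&D systems) was assessed by the same approach as the VAP-1 assay, using 1 mM putrescine as substrate. Hydrogen peroxide formed was detected through an HRP-coupled Amplex Red reaction yielding fluorescent resorufin, read at 544 nm excitation and 590 nm emission. IC50 values came from four-parameter logistic fitting in GraphPad Prism.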

Row | Structure (SMILES) | IC50 (recombinant human VAP-1) | IC50 [1] | IC50 [2] | IC50 [3]
1 | NC/C(=C\F)Cn1ncn(Cc2ccc(-c3cnc(N)nc3)s2)c1=O [Example 167, 2-[(2E)-2-(aminomethyl)-3-fluoroprop-2-en-1-yl]-4-{[5-(2-aminopyrimidin-5-yl)thiophen-2-yl]methyl}-2,4-dihydro-3H-1,2,4-triazol-3-one] | 2.4 nM | > 100000 nM | > 10000 nM | 1800 nM
2 | NC/C(=C\F)Cn1ncn(Cc2ccc(Cc3ccc(OC(F)(F)F)cc3)s2)c1=O [Example 168, 2-[(2E)-2-(aminomethyl)-3-fluoroprop-2-en-1-yl]-4-({5-[4-(trifluoromethoxy)benzyl]thiophen-2-yl}methyl)-2,4-dihydro-3H-1,2,4-triazol-3-one] | 12 nM | > 100000 nM | 340 nM | 4500 nM
3 | NC/C(=C\F)Cn1ncn(Cc2ccc(-c3ccc(CO)cc3)s2)c1=O [Example 169, 2-[(2E)-2-(aminomethyl)-3-fluoroprop-2-en-1-yl]-4-({5-[4-(hydroxymethyl)phenyl]thiophen-2-yl}methyl)-2,4-dihydro-3H-1,2,4-triazol-3-one] | 3.3 nM | > 100000 nM | 930 nM | 12000 nM
4 | NC/C(=C\F)Cn1ncn(Cc2ccc(-c3ccc(OC(F)F)cc3)s2)c1=O [Example 170, 2-[(2E)-2-(aminomethyl)-3-fluoroprop-2-en-1-yl]-4-({5-[4-(difluoromethoxy)phenyl]thiophen-2-yl}methyl)-2,4-dihydro-3H-1,2,4-triazol-3-one] | 3 nM | > 100000 nM | 190 nM | 3100 nM
5 | NC/C(=C\F)Cn1ncn(Cc2ccc(-c3ccc(CCO)cc3)s2)c1=O [Example 171, 2-[(2E)-2-(aminomethyl)-3-fluoroprop-2-en-1-yl]-4-({5-[4-(2-hydroxyethyl)phenyl]thiophen-2-yl}methyl)-2,4-dihydro-3H-1,2,4-triazol-3-one] | 2.4 nM | > 100000 nM | 740 nM | 16000 nM
6 | Cc1cc(-c2ccc(Cn3cnn(C/C(=C/F)CN)c3=O)s2)cnc1N1CCOCC1 [Example 172, 2-[(2E)-2-(aminomethyl)-3-fluoroprop-2-en-1-yl]-4-({5-[5-methyl-6-(morpholin-4-yl)pyridin-3-yl]thiophen-2-yl}methyl)-2,4-dihydro-3H-1,2,4-triazol-3-one] | 2.8 nM | > 100000 nM | 3900 nM | 490 nM
7 | CN(C)c1ncc(-c2ccc(Cn3cnn(C/C(=C/F)CN)c3=O)s2)cc1F [Example 173, 2-[(2E)-2-(aminomethyl)-3-fluoroprop-2-en-1-yl]-4-({5-[6-(dimethylamino)-5-fluoropyridin-3-yl]thiophen-2-yl}methyl)-2,4-dihydro-3H-1,2,4-triazol-3-one] | 2.1 nM | > 100000 nM | 2000 nM | 1200 nM
8 | NC/C(=C\F)Cn1ncn(Cc2ccc(-c3ccc(OCC4CC4)nc3)s2)c1=O [Example 174, 2-[(2E)-2-(aminomethyl)-3-fluoroprop-2-en-1-yl]-4-({5-[6-(cyclopropylmethoxy)pyridin-3-yl]thiophen-2-yl}methyl)-2,4-dihydro-3H-1,2,4-triazol-3-one] | 7.7 nM | > 100000 nM | 570 nM | 1000 nM
9 | NC/C(=C\F)Cn1ncn(Cc2ccc(-c3ccnnc3)s2)c1=O [Example 175, 2-[(2E)-2-(aminomethyl)-3-fluoroprop-2-en-1-yl]-4-{[5-(pyridazin-4-yl)thiophen-2-yl]methyl}-2,4-dihydro-3H-1,2,4-triazol-3-one] | 3.6 nM | > 100000 nM | 4400 nM | 670 nM
10 | CNC(=O)c1ccc(-c2ccc(Cn3cnn(C/C(=C/F)CN)c3=O)s2)cc1 [Example 176, 4-[5-({1-[(2E)-2-(aminomethyl)-3-fluoroprop-2-en-1-yl]-5-oxo-1,5-dihydro-4H-1,2,4-triazol-4-yl}methyl)thiophen-2-yl]-N-methylbenzamide] | 1.5 nM | > 100000 nM | 1900 nM | 1100 nM
11 | CS(=O)(=O)Nc1cccc(-c2ccc(Cn3cnn(C/C(=C/F)CN)c3=O)s2)c1 [Example 177, N-{3-[5-({1-[(2E)-2-(aminomethyl)-3-fluoroprop-2-en-1-yl]-5-oxo-1,5-dihydro-4H-1,2,4-triazol-4-yl}methyl)thiophen-2-yl]phenyl}methansulfonamide] | 1.5 nM | > 100000 nM | 300 nM | 570 nM
12 | COc1cc(-c2ccc(Cn3cnn(C/C(=C/F)CN)c3=O)s2)cnc1OC [Example 178, 2-[(2E)-2-(aminomethyl)-3-fluoroprop-2-en-1-yl]-4-{[5-(5,6-dimethoxypyridin-3-yl)thiophen-2-yl]methyl}-2,4-dihydro-3H-1,2,4-triazol-3-one] | 0.8 nM | > 100000 nM | 700 nM | 280 nM
